These compounds were tested on THP1 cells (LPS induced TNF release) (assay: Lipopolysaccharide-Activated THP1 Cell TNF Production Assay). Details: Homo sapiens, THP-1; THP1 cells, bacterial LPS, secreted TNF-α after 3 h at 37° C.; read-out: IC50 values in the THP1 cell assay (LPS induced TNF release).
Format: cell-based
Procedure: Lipopolysaccharide-Activated THP1 Cell TNF Production Assay
THP1 cells are resuspended in fresh THP1 media (RPMI 1640, 10% heat-inactivated FBS, 1×PGS, 1×NEAA, plus 30 μM βME) at a concentration of 1E6/mL. One hundred microliters of cells per well are plated in a polystyrene 96-well tissue culture. One microgram per mL of bacterial LPS is prepared in THP1 media and is transferred to the wells. Test compounds are dissolved in 100% DMSO and are serially diluted 3 fold in a polypropylene 96-well microtiter plate (drug plate). HI control and LO control wells contain only DMSO. One microliter of test compound from the drug plate followed by 10 μL of LPS are transferred to the cell plate. The treated cells are induced to synthesize and secrete TNF-α at 37° C. for 3 h. Forty microliters of conditioned media are transferred to a 96-well polypropylene plate containing 110 μL of ECL buffer (50 mM Tris-HCl pH 8.0, 100 mM NaCl, 0.05% Tween 20, 0.05% NaN3 and 1% FBS) supplemented with 0.44 nM MAB610 monoclonal Ab (R&D Systems), 0.34 nM ruthenylated AF210NA polyclonal Ab (R&D Systems) and 44 μg/mL sheep anti-mouse M280 Dynabeads (Dynal). After a 2 h incubation at RT with shaking, the reaction is read on the ECL M8 Instrument (IGEN Inc.). A low voltage is applied to the ruthenylated TNF-α immune complexes, which in the presence of TPA (the active component in Origlo), results in a cyclical redox reaction generating light at […]. The amount of secreted TNF-α in the presence of compound compared with that in the presence of DMSO vehicle alone (HI control) is calculated using the formula: % control (POC)=(cpd−average LO)/(average HI−average LO)*100. Data (consisting of POC and inhibitor concentration in μM) is fitted to a 4-parameter equation (y=A+((B−A)/(1+((×/C)ôD))), where A is the minimum y (POC) value, B is the maximum y (POC), C is the x (cpd concentration) at the point of inflection and D is the slope factor) using a Levenburg-Marquardt non-linear regression algorithm.

IC50	Compound
≤ 20 µM	C[C@H](Nc1nccc(N(C)c2ccnc(-c3ccccc3)n2)n1)[C@@H]1CCC[C@H](CCN)C1 [Example 10, N^2-((S)-((1R,3S)-3-(2-Aminoethyl)cyclohexyl)ethyl)-N^4-methyl-N^4-(2-phenylpyrimidin-4-yl)pyrimidine-2,4-diamine]
≤ 20 µM	CN(c1cccc(-c2cccc(F)c2F)n1)c1ccnc(NCCc2ccccc2)n1 [Example 145, N^4-(6-(2,3-Difluorophenyl)pyridin-2-yl)-N^4-methyl-N^2-phenethylpyrimidine-2,4-diamine]
≤ 20 µM	Cc1ccccc1-c1cccc(N(C)c2ccnc(NCCc3ccccc3)n2)n1 [Example 139, N^4-Methyl-N^2-phenethyl-N^4-(6-o-tolylpyridin-2-yl)-pyrimidine-2,4-diamine]
≤ 20 µM	CNC(=O)c1cnc(-c2ccccc2)nc1Nc1ccnc(NCCc2cccnc2)n1 [Example 101, N-Methyl-2-phenyl-4-(2-(2-(pyridin-3-yl)ethylamino)pyrimidin-4-ylamino)-pyrimidine-5-carboxamide]
≤ 20 µM	Clc1nnc(Nc2ccnc(N3CCCC3Cc3ccccc3)n2)cc1-c1ccccc1 (centres unmarked) [Example 182, N-(2-(2-Benzylpyrrolidin-1-yl)pyrimidin-4-yl)-6-chloro-5-phenylpyridazin-3-amine]
≤ 20 µM	C[C@@H](N)CC(=O)N1CCC(Nc2nccc(N(C)c3ccnc(-c4ccccc4)n3)n2)CC1 [Example 44, (R)-3-Amino-1-(4-(4-(methyl(2-phenylpyrimidin-4-yl)amino)pyrimidin-2-ylamino)-piperidin-1-yl)butan-1-one]
≤ 20 µM	CN(c1cccc(-c2ccsc2)n1)c1ccnc(NCCc2ccccc2)n1 [Example 147]
≤ 20 µM	CNC(=O)c1cnc(-c2ccccc2)nc1Nc1ccnc(NCCc2ccccn2)n1 [Example 99, N-Methyl-2-phenyl-4-(2-(2-(pyridin-2-yl)ethylamino)pyrimidin-4-ylamino)-pyrimidine-5-carboxamide]
≤ 20 µM	CN(c1nc(NCCc2cccnc2)ncc1F)c1nc(-c2ccccc2)ncc1F [Example 69, 5-Fluoro-N^4-(5-fluoro-2-phenylpyrimidin-4-yl)-N^4-methyl-N^2-(2-(pyridin-3-yl)-ethyl)pyrimidine-2,4-diamine]
≤ 20 µM	CNC(=O)[C@@H](Cc1ccccc1)Nc1nccc(N(C)c2ccnc(-c3ccccc3)n2)n1 [Example 46, (R)-N-Methyl-2-(4-(methyl(2-phenylpyrimidin-4-yl)amino)pyrimidin-2-ylamino)-3-phenylpropanamide]
≤ 20 µM	C[C@H](N)c1ccc(CCNc2nccc(N(C)c3ccnc(-c4ccccc4)n3)n2)cc1 [Example 28, (S)-N^2-(4-(1-Aminoethyl)phenethyl)-N^4-methyl-N^4-(2-phenylpyrimidin-4-yl)-pyrimidine-2,4-diamine]
≤ 20 µM	C[C@H](N)C(=O)N1CCC(Nc2nccc(N(C)c3ccnc(-c4ccccc4)n3)n2)CC1 [Example 23]
≤ 20 µM	C[C@@H](Cc1cccc([C@@H](C)N)c1)Nc1nccc(N(C)c2ccnc(-c3ccccc3)n2)n1 [Example 1, N^2-((S)-1-(3-((R)-1-Aminoethyl)phenyl)propan-2-yl)-N^4-methyl-N^4-(2-phenylpyrimidin-4-yl)pyrimidine-2,4-diamine]
≤ 20 µM	CN(c1ccnc(N[C@@H](CCO)Cc2ccccc2)n1)c1ccnc(-c2ccccc2)n1 [(3R)-3-((4-(methyl(2-phenyl-4-pyrimidinyl)amino)-2-pyrimidinyl)amino)-4-phenyl-1-butanol]
≤ 20 µM	CN(c1cc(-c2ccccc2)c(=O)n(C)c1)c1ccnc(N[C@@H](CC(=O)O)Cc2ccccc2)n1 [(3R)-3-((4-(methyl(1-methyl-6-oxo-5-phenyl-1,6-dihydro-3-pyridinyl)amino)-2-pyrimidinyl)amino)-4-phenylbutanoic acid]
≤ 20 µM	CN(c1ccnc(NCCc2cccnc2)n1)c1nc(-c2ccccc2)ncc1Br [Example 63, N^4-(5-Bromo-2-phenylpyrimidin-4-yl)-N^4-methyl-N^2-(2-(pyridin-3-yl)ethyl)-pyrimidine-2,4-diamine]

IC50	Compound
≤ 20 µM	C[C@H](N)c1cccc(CCNc2nccc(N(C)c3ccnc(-c4ccccc4)n3)n2)c1 [Example 21, (S)-N^2-(3-(1-Aminoethyl)phenethyl)-N^4-methyl-N^4-(2-phenylpyrimidin-4-yl)-pyrimidine-2,4-diamine]
≤ 20 µM	C[C@@H](Cc1cccc(CN)c1)Nc1nccc(N(C)c2nc(-c3ccccc3F)ncc2F)n1 [Example 68, N^2-((S)-1-(3-(Aminomethyl)phenyl)propan-2-yl)-N^4-(5-fluoro-2-(2-fluorophenyl)-pyrimidin-4-yl)-N^4-methylpyrimidine-2,4-diamine]
≤ 20 µM	COc1ncc(N(C)c2ccnc(NCCc3ccccc3)n2)cc1-c1ccccc1 [Example 172, N^4-(6-Methoxy-5-phenylpyridin-3-yl)-N^4-methyl-N^2-phenethylpyrimidine-2,4-diamine]
≤ 20 µM	CN(c1ccnc(N[C@@H](CNCCN)Cc2ccccc2)n1)c1ccnc(-c2ccccc2)n1 [Example 50, (R)-N^2-(3-(2-Aminoethylamino)-1-phenylpropan-2-yl)-N^4-methyl-N^4-(2-phenyl-pyrimidin-4-yl)pyrimidine-2,4-diamine]
≤ 20 µM	CN(c1ccnc(NC(C)(C)Cc2ccccc2)n1)c1ccnc(-c2ccccc2)n1 [Example 6, N^4-Methyl-N^2-(2-methyl-1-phenylpropan-2-yl)-N^4-(2-phenylpyrimidin-4-yl)pyrimidine-2,4-diamine]
≤ 20 µM	NC(=O)c1cnc(-c2ccccc2)nc1Nc1ccnc(NCCc2cccnc2)n1 [Example 65, 2-Phenyl-4-(2-(2-(pyridin-3-yl)ethylamino)pyrimidin-4-ylamino)pyrimidine-5-carboxamide]
≤ 20 µM	CN(c1cc(-c2ccccc2)c(=O)n(C)c1)c1ccnc(NC2CCNCC2)n1 [Example 174, 1-Methyl-5-(methyl(2-(piperidin-4-ylamino)pyrimidin-4-yl)amino)-3-phenylpyridin-2(1H)-one]
≤ 20 µM	CN(c1ccnc(NCCc2cccnc2)n1)c1ccnc(-c2cccc(F)c2)n1 [Example 72, N^4-(2-(3-Fluorophenyl)pyrimidin-4-yl)-N^4-methyl-N^2-(2-(pyridin-3-yl)ethyl)-pyrimidine-2,4-diamine]
≤ 20 µM	CN(c1ccnc(NCCc2cccnc2)n1)c1ccnc(-c2ccsc2)n1 [Example 74, N^4-Methyl-N^2-(2-(pyridin-3-yl)ethyl)-N^4-(2-(thiophen-3-yl)pyrimidin-4-yl)-pyrimidine-2,4-diamine]
≤ 20 µM	C[C@H](N)c1cccc(C[C@H](C)Nc2nccc(N(C)c3ccnc(-c4ccccc4)n3)n2)c1 [Example 40, N^2-((S)-1-(3-((S)-1-Aminoethyl)phenyl)propan-2-yl)-N^4-methyl-N^4-(2-phenyl-pyrimidin-4-yl)pyrimidine-2,4-diamine]
≤ 20 µM	CN(c1ccnc(N[C@H](CCO)c2ccccc2)n1)c1ccnc(-c2ccccc2)n1 [Example 31, (R)-3-(4-(Methyl(2-phenylpyrimidin-4-yl)amino)pyrimidin-2-ylamino)-3-phenylpropan-1-ol]
≤ 20 µM	CN(c1ccnc(NCCc2ccccn2)n1)c1cc(O)nc(-c2ccccc2)n1 [Example 120, 6-(Methyl(2-(2-(pyridin-2-yl)ethylamino)pyrimidin-4-yl)amino)-2-phenylpyrimidin-4-ol]
≤ 20 µM	CN(c1ccnc(-c2ccccc2)n1)c1ccnc(N2CC[C@H]2Cc2ccccc2)n1 [N-methyl-2-phenyl-N-(2-((2R)-2-(phenylmethyl)-1-azetidinyl)-4-pyrimidinyl)-4-pyrimidinamine]
≤ 20 µM	CN(c1ccnc(N[C@@H](CCNC2CC2)Cc2ccccc2)n1)c1ccnc(-c2ccccc2)n1 [Example 59, (R)-N^2-(4-(Cyclopropylamino)-1-phenylbutan-2-yl)-N^4-methyl-N^4-(2-phenyl-pyrimidin-4-yl)pyrimidine-2,4-diamine]
≤ 20 µM	CN(c1ccnc(N[C@@H](CCN)Cc2ccccc2)n1)c1ccnc(-c2ccccc2)n1 [Example 57, (R)-N^2-(4-Amino-1-phenylbutan-2-yl)-N^4-methyl-N^4-(2-phenylpyrimidin-4-yl)pyrimidine-2,4-diamine]
≤ 20 µM	COc1nc(-c2ccccc2)nc(N(C)c2ccnc(N[C@@H](C)Cc3cccc([C@@H](C)N)c3)n2)n1 [Example 126, N^2-((S)-1-(3-((R)-1-Aminoethyl)phenyl)propan-2-yl)-N^4-(4-methoxy-6-phenyl-1,3,5-triazin-2-yl)-N^4-methylpyrimidine-2,4-diamine]

Source: US20060069110A1, “Substituted heterocyclic compounds and methods of use” (priority 2004, published 2006)
